Measured values from the Kinase Knowledgebase extract (Sharma et al. 2016).

Target: PIK3CG (human) (UniProt P48736)
Test: Inhibition of PIK3CG Kinase Activity

Sequence of PIK3CG (human) (P48736 whole entry, looked up): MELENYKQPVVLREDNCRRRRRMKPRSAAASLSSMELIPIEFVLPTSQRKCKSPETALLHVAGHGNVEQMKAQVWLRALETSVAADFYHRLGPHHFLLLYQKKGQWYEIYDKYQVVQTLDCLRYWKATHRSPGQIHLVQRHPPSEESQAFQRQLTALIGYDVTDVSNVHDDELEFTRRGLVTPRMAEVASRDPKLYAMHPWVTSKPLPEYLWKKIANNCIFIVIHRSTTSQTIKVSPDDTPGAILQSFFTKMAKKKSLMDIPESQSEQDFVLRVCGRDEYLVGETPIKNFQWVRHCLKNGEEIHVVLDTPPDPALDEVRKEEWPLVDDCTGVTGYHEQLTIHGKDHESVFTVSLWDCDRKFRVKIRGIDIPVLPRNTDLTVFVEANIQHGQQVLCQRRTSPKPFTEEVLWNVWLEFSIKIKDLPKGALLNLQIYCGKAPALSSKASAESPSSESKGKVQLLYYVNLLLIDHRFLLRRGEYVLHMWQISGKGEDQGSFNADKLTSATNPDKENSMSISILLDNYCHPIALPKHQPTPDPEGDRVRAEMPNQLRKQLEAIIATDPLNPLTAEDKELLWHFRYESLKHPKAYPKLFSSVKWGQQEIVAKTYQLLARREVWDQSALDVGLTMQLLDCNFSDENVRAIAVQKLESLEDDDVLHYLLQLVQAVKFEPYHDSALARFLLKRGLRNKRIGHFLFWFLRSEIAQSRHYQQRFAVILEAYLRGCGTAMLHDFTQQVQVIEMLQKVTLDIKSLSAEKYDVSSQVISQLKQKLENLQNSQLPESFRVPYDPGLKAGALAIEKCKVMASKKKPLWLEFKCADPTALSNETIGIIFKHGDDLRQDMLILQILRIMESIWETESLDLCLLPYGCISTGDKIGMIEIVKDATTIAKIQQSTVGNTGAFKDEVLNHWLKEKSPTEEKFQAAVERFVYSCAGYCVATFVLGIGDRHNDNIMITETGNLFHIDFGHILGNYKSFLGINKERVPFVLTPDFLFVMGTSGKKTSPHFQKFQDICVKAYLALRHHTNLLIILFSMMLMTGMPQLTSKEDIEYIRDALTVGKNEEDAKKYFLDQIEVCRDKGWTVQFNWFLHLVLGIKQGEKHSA

| IC50 | Structure (SMILES) |
| --- | --- |
| < 600 nM | Cc1nc(Nc2cc[nH]n2)sc1-c1ccc(S(N)(=O)=O)cc1 |
| < 600 nM | Cc1nc(Nc2cnccn2)sc1-c1ccc(S(N)(=O)=O)cc1 |
| < 600 nM | Cc1nc(Nc2nccs2)sc1-c1ccc(Cl)c(S(=O)(=O)NCCO)c1 |
| < 600 nM | Cc1nc(Nc2nnc(CCN3CCOCC3)s2)sc1-c1ccc(S(N)(=O)=O)cc1 |
| < 600 nM | Cc1nc(Nc2cnccn2)sc1-c1cccc(S(N)(=O)=O)c1 |
| < 600 nM | Cc1nc(Nc2ccc(N3CCN(C)CC3)nc2)sc1-c1ccc(S(C)(=O)=O)cc1 |
| < 600 nM | Cc1nc(Nc2cncc(Cl)n2)sc1-c1ccc(S(C)(=O)=O)cc1 |
| < 600 nM | Cc1nc(Nc2ccc(Cl)nn2)sc1-c1ccc(S(N)(=O)=O)cc1 |
| < 600 nM | Cc1nc(Nc2cc[nH]n2)sc1-c1ccc(Cl)c(S(=O)(=O)N(CCO)CCO)c1 |
| < 600 nM | Cc1nc(Nc2nncs2)sc1-c1ccc(S(N)(=O)=O)cc1 |
| < 600 nM | Cc1nc(Nc2nnc(CCC(=O)O)s2)sc1-c1ccc(S(C)(=O)=O)c(C(F)(F)F)c1 |
| < 600 nM | COc1ccc(Nc2nc(C)c(-c3ccc(S(N)(=O)=O)cc3)s2)cn1 |
| < 600 nM | Cc1nc(Nc2cc[nH]n2)sc1-c1ccc(S(C)(=O)=O)c(F)c1 |
| < 600 nM | Cc1csc(Nc2nc(C)c(-c3ccc(S(N)(=O)=O)cc3)s2)n1 |
| < 600 nM | Cc1nc(Nc2cncc(NCCCO)n2)sc1-c1ccc(S(N)(=O)=O)cc1 |
| < 600 nM | COc1cncc(Nc2nc(C)c(-c3ccc(S(=O)(=O)NC4CC4)cc3)s2)n1 |
| < 600 nM | CCc1nnc(Nc2nc(C)c(-c3ccc(S(=O)(=O)NCCO)cc3)s2)s1 |
| < 600 nM | Cc1nc(Nc2ccccn2)sc1-c1ccc(S(N)(=O)=O)cc1 |
| < 600 nM | Cc1nc(Nc2cnccn2)sc1-c1ccc(S(C)(=O)=O)c(-n2ccnc2C)c1 |
| < 600 nM | Cc1nc(Nc2cnccn2)sc1-c1ccc(S(C)(=O)=O)cc1 |
| < 600 nM | Cc1nc(Nc2ncccn2)sc1-c1ccc(S(N)(=O)=O)cc1 |
| < 600 nM | Cc1nc(Nc2cccnc2)sc1-c1ccc(S(N)(=O)=O)c(Cl)c1 |
| < 600 nM | CCOC(=O)CCc1nnc(Nc2nc(C)c(-c3ccc(S(N)(=O)=O)cc3)s2)s1 |
| < 600 nM | Cc1nc(Nc2cncc(N3CCN(C)CC3)n2)sc1-c1ccc(S(N)(=O)=O)cc1 |
| < 600 nM | Cc1cc(Nc2nc(C)c(-c3ccc(Cl)c(S(=O)(=O)NCCO)c3)s2)n(C)n1 |
| < 600 nM | Cc1nc(Nc2nnc(C3CCC(C(=O)O)CC3)s2)sc1-c1ccc(S(C)(=O)=O)c(C(F)(F)F)c1 (centres undefined) |
| < 600 nM | Cc1nc(Nc2cnccn2)sc1-c1ccc([S+](C)[O-])cc1 (centres undefined) |
| < 600 nM | Cc1nc(Nc2ccncc2)sc1-c1ccc(S(N)(=O)=O)cc1 |
| < 600 nM | Cc1nc(Nc2nnc(N3CCOCC3)s2)sc1-c1ccc(S(C)(=O)=O)c(C(F)(F)F)c1 |
| < 600 nM | CCN(CC)CCCNS(=O)(=O)c1cc(-c2sc(Nc3cc[nH]n3)nc2C)ccc1Cl |

More lines, now with the values behind:

| Structure (SMILES) | IC50 |
| --- | --- |
| Cc1nc(Nc2cc[nH]n2)sc1-c1ccc(S(C)(=O)=O)c(C(F)(F)F)c1 | < 600 nM |
| CNS(=O)(=O)c1ccc(-c2sc(Nc3cnccn3)nc2C)cc1 | < 600 nM |
| Cc1cnc(Nc2nc(C)c(-c3ccc(Cl)c(S(=O)(=O)NCCO)c3)s2)s1 | < 600 nM |
| CNS(=O)(=O)c1ccc(-c2sc(Nc3cncc(OC)n3)nc2C)cc1 | < 600 nM |
| Cc1nc(Nc2ccn(C)n2)sc1-c1ccc(Cl)c(S(=O)(=O)NCCO)c1 | < 600 nM |
| CCN(CC)CCN(C)c1cc(-c2sc(Nc3cc[nH]n3)nc2C)ccc1S(C)(=O)=O | < 600 nM |
| Cc1nc(Nc2cncc(N3CCN(C)CC3)n2)sc1-c1ccc(S(C)(=O)=O)c(C(F)(F)F)c1 | < 600 nM |
| Cc1nc(Nc2nccs2)sc1-c1ccc(S(N)(=O)=O)cc1 | < 600 nM |
| CCOc1cccc(Nc2nc(C)c(-c3ccc(S(N)(=O)=O)cc3)s2)n1 | < 600 nM |
| Cc1nc(Nc2n[nH]cc2Br)sc1-c1ccc(S(C)(=O)=O)c(F)c1 | < 600 nM |
| Cc1nc(Nc2cnccn2)sc1-c1cccc(S(=O)(=O)NCCO)c1 | < 600 nM |
| Cc1nc(Nc2cnccn2)sc1-c1ccc(S(C)(=O)=O)c(-n2ccnc2)c1 | < 600 nM |
| Cc1nc(Nc2cccnc2)sc1-c1ccc(S(C)(=O)=O)c(Cl)c1 | < 600 nM |
| Cc1nc(Nc2cnccn2)sc1-c1ccc(S(=O)(=O)NC2CC2)cc1 | < 600 nM |
| COc1cc(Nc2nc(C)c(-c3ccc(S(N)(=O)=O)cc3)s2)ncn1 | < 600 nM |
| Cc1nc(Nc2cnccn2)sc1-c1ccc(S(C)(=O)=O)c(C(F)(F)F)c1 | < 600 nM |
| CCc1nccn1-c1cc(-c2sc(Nc3cnccn3)nc2C)ccc1S(C)(=O)=O | < 600 nM |
| Cc1nc(Nc2cnccn2)sc1-c1ccc(S(N)(=O)=O)c(Cl)c1 | < 600 nM |
| Cc1cnc(Nc2nc(C)c(-c3ccc(S(N)(=O)=O)cc3)s2)s1 | < 600 nM |
| COc1ccc(-c2sc(Nc3cnccn3)nc2C)cc1S(N)(=O)=O | < 600 nM |
| Cc1nc(Nc2cc[nH]n2)sc1-c1ccc(S(C)(=O)=O)c(OCCN2CCOCC2)c1 | < 600 nM |
| Cc1nc(Nc2cnccn2)sc1-c1ccc(Cl)c(S(=O)(=O)NCCO)c1 | < 600 nM |
| Cc1nc(Nc2nnc(N3CCN(C)CC3)s2)sc1-c1ccc(S(C)(=O)=O)c(C(F)(F)F)c1 | < 600 nM |
| Cc1nc(Nc2nnc(CCC(=O)O)s2)sc1-c1ccc(S(N)(=O)=O)cc1 | < 600 nM |
| Cc1cnc(Nc2nc(C)c(-c3ccc(C(=O)O)cc3)s2)s1 | < 600 nM |
| Cc1nc(Nc2nnc(CCN3CCOCC3)s2)sc1-c1ccc(S(C)(=O)=O)c(C(F)(F)F)c1 | < 600 nM |
| CCc1nnc(Nc2nc(C)c(-c3cccc(S(N)(=O)=O)c3)s2)s1 | < 600 nM |

| Structure (SMILES) | IC50 |
| --- | --- |
| Cc1nnc(Nc2nc(C)c(-c3ccc(S(C)(=O)=O)c(-n4ccnc4)c3)s2)s1 | < 600 nM |
| Cc1nc(Nc2cncc(Cl)n2)sc1-c1ccc(S(C)(=O)=O)c(C(F)(F)F)c1 | < 600 nM |
| Cc1nc(Nc2cnccn2)sc1-c1ccc(Cl)c(S(N)(=O)=O)c1 | < 600 nM |
| Cc1nc(Nc2nnc(CCN(C)C)s2)sc1-c1ccc(S(N)(=O)=O)cc1 | < 600 nM |
| Cc1nc(Nc2cc[nH]n2)sc1-c1ccc(S(C)(=O)=O)c(N2CCN(C)CC2)c1 | < 600 nM |
| Cc1nc(Nc2nnn[nH]2)sc1-c1ccc(S(N)(=O)=O)cc1 | < 600 nM |
| Cc1nnc(Nc2nc(C)c(-c3ccc(S(N)(=O)=O)cc3)s2)s1 | < 600 nM |
| COc1ccc(Nc2nc(C)c(-c3ccc(Cl)c(S(C)(=O)=O)c3)s2)cn1 | < 600 nM |
| Cc1nc(Nc2cc[nH]n2)sc1-c1cccc(S(=O)(=O)NCCO)c1 | < 600 nM |
| Cc1nc(Nc2cncc(NCCN3CCOCC3)n2)sc1-c1ccc(S(N)(=O)=O)cc1 | < 600 nM |
| Cc1nc(Nc2cnccn2)sc1-c1ccc(S(C)(=O)=O)c(-n2ccnc2C(C)C)c1 | < 600 nM |
| Cc1nc(Nc2cc[nH]n2)sc1-c1cccc(S(N)(=O)=O)c1 | < 600 nM |
| Cc1nc(Nc2nnc(CC(=O)O)s2)sc1-c1ccc(S(N)(=O)=O)cc1 | < 600 nM |
| Cc1nc(Nc2ccn(C)n2)sc1-c1ccc(S(C)(=O)=O)c(F)c1 | < 600 nM |
| CCCc1nccn1-c1cc(-c2sc(Nc3nnc(CC)s3)nc2C)ccc1S(C)(=O)=O | < 600 nM |
| Cc1nc(Nc2cc[nH]n2)sc1-c1ccc(C(=O)O)cc1 | < 600 nM |
| CCCc1nccn1-c1cc(-c2sc(Nc3cc[nH]n3)nc2C)ccc1S(C)(=O)=O | < 600 nM |
| Cc1nc(Nc2ccc(Cl)cn2)sc1-c1ccc(S(N)(=O)=O)cc1 | < 600 nM |
| Cc1nc(Nc2cncc(N3CCOCC3)n2)sc1-c1ccc(S(N)(=O)=O)cc1 | < 600 nM |
| Cc1nc(Nc2cc[nH]n2)sc1-c1ccc(S(C)(=O)=O)c(-n2ccnc2)c1 | < 600 nM |
| COc1cncc(Nc2nc(C)c(-c3ccc(S(N)(=O)=O)cc3)s2)n1 | < 600 nM |
| Cc1nc(Nc2cccnc2)sc1-c1ccc(S(N)(=O)=O)cc1 | < 600 nM |
| Cc1nc(Nc2cc[nH]n2)sc1-c1ccc(Cl)c(S(=O)(=O)NCCO)c1 | < 600 nM |
| Cc1nc(Nc2cncc(Cl)n2)sc1-c1ccc(S(N)(=O)=O)cc1 | < 600 nM |
| Cc1nc(Nc2cnccn2)sc1-c1ccc(C(=O)O)cc1 | < 600 nM |
| Cc1nc(Nc2nc[nH]n2)sc1-c1ccc(S(N)(=O)=O)cc1 | < 600 nM |
| CCN(CC)CCCNc1cncc(Nc2nc(C)c(-c3ccc(S(N)(=O)=O)cc3)s2)n1 | < 600 nM |
